The text below walks through data of patent US12071430B2 (The Johns Hopkins University, priority 2011, dated 2024).

Values after ≈ are worked out from the molar mass of the structure shown. Like-named read-outs stand apart in the source and are kept apart here.

One series concerns AMPK. Briefly: Western blot, AMPK activation in HUVEC. The series is classed as cell-based, human. As to conditions: 24 h, dose-dependent. The procedure:
(§1) Western blot. […] Then cells were lysed using RIPA buffer and the protein concentration were measured and normalized. After electrophoresis and transfer onto 0.45 um nitrocellulose membranes, the membranes were bolted with 5% BSA for 1 h and then incubated overnight at 4° C. Secondary antibody was applied to each membrane for 1 hour. Bolts were imaged using Syngene PXi imaging system after adding chemiluminescent substrate. The following antibodies were used for the assay: AMPKα (1:1,000, cell signaling, #2532s), phosphor-AMPKα (1:1,000, cell signaling #2535s), ACC (1:1,000, cell signaling #3662s), phosphor-ACC (1:1,000, cell signaling, #3661s), mTOR (1:1,000, cell signaling, #2972S), phosphor-mTOR (1:1,000, cell signaling, #9234s), p70 S6 Kinase (1:1,000, senta cruz, #sc-8418), phosphor-p70 S6 Kinase (1:1,000, cell signaling, #3662s), anti-Rabbit IgG (1:10000, GE lifesciences, #NA934V).
In general terms: Immunoblotting shows a protein as a band on a membrane.

Series [1] can be described thus: Aqueous solubility test in 0.001N HCl. The series is classed as physicochemical. To be noted: for solubility at 24 h: 0.001 N HCl aqueous buffer, simulated gastric fluid, kinetic from dmso stock, thermodynamic solubility, HPLC, pH=3, room temperature. The procedure:
The inhibitory effects of the new analogs on HUVEC proliferation were measured using a [3H]-thymidine incorporation assay. The log P values, used as an indicator of lipophilicity, were calculated using ALOGPS2.1 software. Aqueous solubility is a key physiochemical property relevant for oral absorption. We determined the solubility of each analog in 0.001 N HCl (pH=3), which represents the acidic human gastric fluid.
Aqueous solubility test. In a 1.5 mL microcentrifuge tube, 2 ul of 10 mM compound stock solution in DMSO was added to 1 mL 0.001N HCl aqueous buffer to obtain saturated solution. The resulting mixture was shaken under 600 rpm for 24 h at room temperature. Then the tube was centrifuged at 13,000 rpm for 5 min to remove the undissolved compound. 100 ul of the supernatant was injected to an Agilent 6120 LC/MS for analysis. The mass spectrometry data was collected under SIM/Scan mode. The ions of compound Exact Mass+1 and Exact Mass+23 were monitored as selected ion monitoring (SIM) for peak area integration. Solubility was calculated according to the concentration standard curve of each compound.

The test system of series [2] is VEGFR2. Put plainly: Western blot, VEGFR2 glycosylation in HUVEC. Type of series: cell-based, human. To be noted: 24 h. The procedure: mTOR and VEGFR2 inhibition. We then determined the effects of compound 14 on AMPK/mTOR activity and VEGFR2 glycosylation. […] We observed two VEGFR2 bands by Western blotting, representing differentially glycosylated forms of the receptor, with the higher molecular weight band being more predominant in untreated HUVEC. […] The high molecular weight species of VEGFR2 disappeared upon treatment with compound 14 at concentrations of 0.5 μM or higher (FIG. 10A). We next determined whether compound 14 and other analogs affected cellular localization of VEGFR2 using immunofluorescence (FIG. 10B). […] In contrast, in the untreated cells VEGFR2 was uniformly distributed in small puncta throughout the cytoplasm. As a critical component of lipid rafts, cholesterol is pivotal to intracellular transportation and cell signaling.
Western blot. […] Then cells were lysed using RIPA buffer and the protein concentration were measured and normalized. After electrophoresis and transfer onto 0.45 um nitrocellulose membranes, the membranes were bolted with 5% BSA for 1 h and then incubated overnight at 4° C. Secondary antibody was applied to each membrane for 1 hour. Bolts were imaged using Syngene PXi imaging system after adding chemiluminescent substrate. […]

A further series concerns HUVECs. Briefly: Filipin staining of intracellular cholesterol (NPC phenotype). The series is classed as cell-based, human. To be noted: HUVEC, 0.2 μM, 24 h. From the text: Nieman-Pick C phenotype and mTOR inhibition. […] We thus determined whether compound 48 shared the same mechanism with itraconazole. The intracellular cholesterol was detected using the cholesterol-binding fluorescent dye filipin. […] It is known that AMPK activation leads to mTOR inhibition.
Inhibition of NPC1. NPC1 plays an essential role in cholesterol export from the endolysosome. […] At a close view (FIG. 9B), the linear pyridinyl-piperizin-1-yl-phenyl core of compound 14 nestled into the hydrophobic channel created by the transmembrane helix. The isobutyl tail faced toward the open entrance of this channel. The tetrazole moiety pointed into the closed end of the pocket and interacted with the hydroxyl group of Tyr1225 via hydrogen bonding.
Filipin staining. 2000 HUVECs were plated in chamber slide with 1 ml media and allowed to settle overnight. […] The the cells were fixed with 4% paraformaldehyde for 15 min. After washed, cells were incubated with 500 ul 50 ug/ml filipin solution for 1 hour in the dark. Then the cells were washed twice with PBS, mounted and covered with coverslip. The images were taken using confocal microscope under 360/460 nm.

For the next series, the system named is mTOR. Put plainly: Western blot, mTOR inhibition in HUVEC. As to conditions: for mTOR inhibition (phosphorylation of mTOR / p70 S6K): 24 h. The series is classed as cell-based, human. The procedure: as §1
Series [3] deals with HUVEC. Briefly: HUVEC proliferation, [3H]-thymidine incorporation assay. The series is classed as cell-based, human. A digest of the protocol: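 Proliferation read as [3H]-thymidine uptake (1 μCi, 6 h pulse) after 24 h drug treatment in triplicate. Cells: HUVEC at passage ≤8 grown in EGM-2, plated 2000/well the night before; IC50 fitted from scintillation counts.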
In general terms: Dividing cells build labelled thymidine or BrdU into new DNA.

The test system of series [4] is VEGFR2. Briefly: Immunofluorescence assay, VEGFR2 cellular localization. Type of series: cell-based, human. As to conditions: HUVEC, 2 μM, 24 h, colocalized with GM130. The procedure:
Immunofluorescence assay. HUVECs (5000) were seeded in 4-well chamber slide (Nunc™ Lab-Tek™ II) with 1 mL media and cultured overnight. Cells were treated with […] drugs or DMSO for 24 h. The media was then aspirated and washed 3 times with PBS. Cells were fixed with 4% paraformaldehyde for 15 min, washed three times with PBS, permeabilized with 0.1% Triton X and washed again. 2% BSA blocking buffer was applied to the cells for 1 h. The primary antibodies of VEGFR2 (1:50, cell signaling, #2479) and GM130 (1:1000, BD, #610823) were incubated overnight at 4° C. After washing 3 times with 0.5% BSA in PBS, secondary antibody solutions (1:1000 goat anti-rabbit Alexa Fluor 488, Invitrogen, #A11008 and 1:1000 goat anti-mouse Alexa Fluor 594, Invitrogen, A11005) were applied at room temperature for 1 h in the dark. After washing 3 times, slides were incubated in 0.1 μg/mL DAPI solution for 5 min and rinsed 2 times with PBS. The coverslip was mounted with Immunount (Fisher) and sealed with nail polish. Confocal images were taken using Zeiss LSM700 confocal microscope with 20× lenses.

Series [5] relates to HUVEC. Put plainly: HUVEC proliferation, [3H]-thymidine incorporation assay. The series is classed as cell-based. To be noted: Homo sapiens, mean ± SD, three independent experiments, read-out: HUVEC inhibition IC50.
The target of the next series is T1, CYP3A4 (Homo sapiens, UniProt P08684).
T1 construct: purchased ThermoFisher P2857; host or cells: baculosomes (insect-cell microsomes, own knowledge)
Briefly: CYP3A4 enzyme assay (Vivid CYP3A4 Green Screening Kit). The series is classed as in vitro ADME. The method in brief:
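Cell-free fluorescence assay with CYP3A4 baculosomes preincubated with drug 10 min at 37° C before Vivid substrate addition. Fluorescence (ex/em 485/520) read every 1 min for 60 minutes. Compounds tested at 1 μM final concentration.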

Series [6] relates to HUVEC. Briefly: HUVEC tube formation assay on Matrigel. Type of series: cell-based. As to conditions: Homo sapiens, 24 h, read-out: inhibition of HUVEC tube formation (total tube length).
The nature of series [7]: Earlier SAR studies, anti-angiogenic activity.
Series [8] is described as follows: Earlier SAR studies, hepatotoxicity.
The conditions of series [9]: background statement; cited from earlier work.

T1 sequence (P08684 whole entry): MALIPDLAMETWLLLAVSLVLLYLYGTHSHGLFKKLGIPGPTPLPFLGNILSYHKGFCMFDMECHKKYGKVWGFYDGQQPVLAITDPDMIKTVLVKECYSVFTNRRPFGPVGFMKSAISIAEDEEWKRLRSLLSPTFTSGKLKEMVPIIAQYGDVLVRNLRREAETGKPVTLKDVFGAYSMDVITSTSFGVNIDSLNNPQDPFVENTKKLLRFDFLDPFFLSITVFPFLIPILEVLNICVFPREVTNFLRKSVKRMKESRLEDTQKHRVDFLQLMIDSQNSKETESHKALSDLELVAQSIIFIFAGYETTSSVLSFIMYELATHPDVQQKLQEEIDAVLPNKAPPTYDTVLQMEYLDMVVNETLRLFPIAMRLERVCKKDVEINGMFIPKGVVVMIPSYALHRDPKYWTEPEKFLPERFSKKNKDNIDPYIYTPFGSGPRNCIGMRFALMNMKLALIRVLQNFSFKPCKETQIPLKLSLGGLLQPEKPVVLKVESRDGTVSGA

For the compound `CCC(C)n1ncn(-c2ccc(N3CCN(c4ccc(OC[C@@H]5CO[C@@](Cn6cnnn6)(c6ccc(Cl)cc6Cl)O5)cn4)CC3)cc2)c1=O` (stereo partly drawn) [Compound 14, 4-(4-(4-(5-(((2S,4R)-2-((1H-tetrazol-1-yl)methyl)-2-(2,4-dichlorophenyl)-1,3-dioxolan-4-yl)methoxy)pyridin-2-yl)piperazin-1-yl)phenyl)-2-(sec-butyl)-2,4-dihydro-3H-1,2,4-triazol-3-one], the “AMPK activation (phosphorylation of AMPK Thr172 / substrate ACC)” value with AMPK is recorded as “activated AMPK”. For the same compound, the “increase in solubility compared to itraconazole” value in series [1] (0.001N HCl) was “over 90 fold”. The compound further yielded a solubility at 24 h in [1] of 0.951 µg/mL (≈ 1.34 µM). Further, in the series on VEGFR2 [2], the “VEGFR2 glycosylation, band mobility” value is given as “mobility shift to the lower molecular weight, hypoglycosylated band”. Also, the “concentration at which the high molecular weight species of VEGFR2 disappeared” value with VEGFR2 [2] was ≥ 0.5 µM. Besides, the “induction of NPC phenotype (cholesterol accumulation)” value (“induction of NPC phenotype” for short) in the series with HUVECs was “massive build-up of cholesterol”. In addition, the “S6K phosphorylation at higher doses” value in the series with mTOR (1 μM and 2 μM) is recorded as “completely abolished”. The “mTOR inhibition (phosphorylation of mTOR / p70 S6K)” value in the series on mTOR is “potently inhibited”. Also, the half-maximal inhibitory concentration (IC50) in the series on HUVEC [3] ([3H]-thymidine incorporation, mean ± SD, three independent experiments, read-out: HUVEC inhibition IC50) was found to be 0.0771 ± 0.0119 µM; with HUVEC [5], 0.077 µM; at CYP3A4 (dose-response, FIG. 2 / FIG. 6, read-out: IC50 for CYP3A4 inhibition), 95 µM. The VEGFR2 cellular localization result in the series on VEGFR2 [4] is reported as “accumulated in the perinuclear region”. Also, the inhibition at 3 µM in the series on HUVEC [6] was found to be 70%.

As to `CCC(C)n1ncn(-c2ccc(N3CCN(c4ccc(OC[C@@H]5CO[C@@](Cn6cnnn6)(c6ccc(Cl)cc6Cl)O5)cc4)CC3)cc2)c1=O` (stereo partly shown) [Compound 24], in [1], the solubility at 24 h was 0.321 µg/mL (≈ 0.455 µM). Also, the “induction of NPC phenotype” value in the series on HUVECs (listed as compound 24) is “massive build-up of cholesterol”. Also, the “CYP3A4 inhibition, in words” value at CYP3A4 (dose response or compared with itraconazole) is “significantly reduced CYP3A4 inhibition”. Moreover, the “anti-angiogenic activity, in words” value in [7] is on record as “increased activity”.

As to `CCC(C)n1ncn(-c2ccc(N3CCN(c4ccc(OC[C@@H]5CO[C@@](Cn6cnnn6)(c6ccc(Cl)cc6Cl)O5)cc4)CC3)cc2)c1=O` (stereo partly drawn) [Compound 48, 4-(4-(4-(4-(((2S,4R)-2-((1H-tetrazol-1-yl)methyl)-2-(2,4-dichlorophenyl)-1,3-dioxolan-4-yl)methoxy)phenyl)piperazin-1-yl)phenyl)-1-sec-butyl-1H-1,2,4-triazol-5(4H)-one], in the series with AMPK, the “AMPK activation (phosphorylation of AMPK Thr172 / substrate ACC)” value was “increased the phosphorylation of AMPK”. Also, the “induction of NPC phenotype” value with HUVECs (listed as compound 48) was “induced NPC phenotype”. Further, the “mTOR inhibition (phosphorylation of mTOR / p70 S6K)” value in the series with mTOR is “decrease in the phosphorylation of mTOR”. In addition, in the series on HUVEC [3] (HUVEC IC50 relative to itraconazole), the “Proliferation (IC50/IC50 Itra)” value was 0.4. Further, the “CYP3A4 Inhibition (compared to intracozanole at 1 um)” value at CYP3A4 (% enzyme inhibition at 1 uM drug / % enzyme inhibition at 1 uM itraconazole) came to 0.02. At CYP3A4 (human, recombinant CYP3A4 baculosomes (cell-free), probe Vivid substrate (Vivid CYP3A4 Green Screening Kit), dose-response, FIG. 2 / FIG. 6, read-out: IC50 for CYP3A4 inhibition), the half-maximal inhibitory concentration (IC50) at 60 min is > 20 µM. For the same compound, the EC50 at 60 min on CYP3A4 (human, recombinant CYP3A4 baculosomes, probe Vivid substrate (Vivid CYP3A4 Green Screening Kit), read-out: EC50 against CYP3A4) is > 20 µM.

With `CCC(C)n1ncn(-c2ccc(N3CCN(c4ccc(OC[C@@H]5CO[C@@](Cn6cncn6)(c6ccc(Cl)cc6Cl)O5)cc4)CC3)cc2)c1=O` (stereo partly shown) [IT-C], in series [8], the “hepatotoxicity, in words” value is on record as “significantly reduced hepatotoxicity”. For the same compound, in [7], the “anti-angiogenic activity, in words” value is “strongest anti-angiogenic activity”.

In series [1], `CCC(C)n1ncn(-c2ccc(N3CCN(c4ccc(OCC5COC(Cn6cncn6)(c6ccc(Cl)cc6Cl)O5)cc4)CC3)cc2)c1=O` (stereo not shown) [itraconazole, reference compound] had a solubility at 24 h of 0.0101 µg/mL (≈ 0.0143 µM). Besides, the “log P” value in series [9] is 5.3.

The solubility is the dissolved amount per volume that the medium holds. High values mean much dissolved substance, low ones little dissolved substance. A word on the IC50: it is the midpoint of a concentration-inhibition curve. As usually defined, the inhibition is the percentage by which the read-out fell short of the control. What is called EC50 is the midpoint of the concentration-response curve. The log P is a log measure of how a compound divides between an organic and an aqueous phase.
